The values below come from US5120851A, “Preparation process for making water-soluble lysine salts of (+)2-(4-fluorophenyl)-alpha-methyl-5-benzoxazole acetic acid” (Euroresearch S.r.l., priority 1988, dated 1992).

Structures can show the parent of a compound that is named as a salt.

The subject of data set [1] is experimental edema induced by carrageen in a rat's paw. In words: experimental edema induced by carrageen in a rat's paw. It is filed as in vivo, rat (Sprague Dawley--Charles River). The following applies: for TI (therapeutic index) LD50 /ED50: LD50 mice oral / ED50 rat paw edema; for ED50: Rattus norvegicus, rat paw carrageen edema, dosed 60 minutes before carrageen, paw volume at 2, 4 and 6 hours. As to the method: (§1) The LD50 was determined by the Litchfield-Wilcoxon method on mice using progressive oral doses. […] The paw volume is checked 2, 4 and 6 hours after inoculating the carrageen.

The conditions of data set [2]: prior art statement; cited from earlier work.
A short description of data set [3]: LD50 by the Litchfield-Wilcoxon method on mice, progressive oral doses. Particulars: mouse, in vivo. The protocol: as §1
The conditions of data set [4]: cited from earlier work.
A short description of data set [5]: water-solubility at 20° C. The data set is classed as physicochemical.

Turning to `C[C@H](C(=O)O)c1ccc2oc(-c3ccc(F)cc3)nc2c1` [Flunoxaprofen, (+)2-(4-fluorophenyl)-alpha-methyl-5-benzoxazole acetic acid], in data set [1], the “TI (therapeutic index) LD50 /ED50” value is 121.18 and the ED50 was 5.97 mg/kg. In addition, the water-solubility result in data set [2] is “very limited”. Also, in data set [3], the LD50 was determined as 724 mg/kg. In addition, in data set [4] (Italian patent No. 1,080,779), the “activity of the dextrorotatory form” value is recorded as “particularly active”. Besides, the “anti-inflammatory, analgesic and antipyretic activity” value in data set [4] (J. Medic. Chem. 1975, vol 18, No. 1, pp 53-58) was “considerable anti-inflammatory, analgesic and antipyretic activity”.
`C[C@H](C(=O)O)c1ccc2oc(-c3ccc(F)cc3)nc2c1` [Example 2]: the “water-solubility (in words)” value in data set [5] (compared with Example 1) is “as in Example 1”.
For `O=C(O)Cc1ccccc1Nc1c(Cl)cccc1Cl` [Diclofenac], the ED50 in data set [1] turned out to be 10 mg/kg.
Take `C[C@H](C(=O)O)c1ccc2oc(-c3ccc(F)cc3)nc2c1` (racemic) [Example 1, salt of (+)2-(4-fluorophenyl)-alpha-methyl-5-benzoxazole acetic acid with DL-lysine]: the “TI (therapeutic index) LD50 /ED50” value in data set [1] (listed as Salt of flunoxaprofen with DL-lysine) amounted to 129.96. In data set [1] (expressed as flunoxaprofen), this compound came in with a 50% effective dose (ED50) of 5.54 mg/kg. Further, the solubility in data set [5] (water) was 1000 mg/mL. The same compound came in with an LD50 in data set [3] (expressed as flunoxaprofen) of 720 mg/kg.
